Reference: ChEMBL document CHEMBL5209564, “Superclomeleon biosensor based assay for SLC12A3 using HEK-293 SLC12A3 OE cells” (2022)

Molecular target: T1, Solute carrier family 12 member 3 (Homo sapiens) (UniProt P55017)
T1 sequence (whole entry): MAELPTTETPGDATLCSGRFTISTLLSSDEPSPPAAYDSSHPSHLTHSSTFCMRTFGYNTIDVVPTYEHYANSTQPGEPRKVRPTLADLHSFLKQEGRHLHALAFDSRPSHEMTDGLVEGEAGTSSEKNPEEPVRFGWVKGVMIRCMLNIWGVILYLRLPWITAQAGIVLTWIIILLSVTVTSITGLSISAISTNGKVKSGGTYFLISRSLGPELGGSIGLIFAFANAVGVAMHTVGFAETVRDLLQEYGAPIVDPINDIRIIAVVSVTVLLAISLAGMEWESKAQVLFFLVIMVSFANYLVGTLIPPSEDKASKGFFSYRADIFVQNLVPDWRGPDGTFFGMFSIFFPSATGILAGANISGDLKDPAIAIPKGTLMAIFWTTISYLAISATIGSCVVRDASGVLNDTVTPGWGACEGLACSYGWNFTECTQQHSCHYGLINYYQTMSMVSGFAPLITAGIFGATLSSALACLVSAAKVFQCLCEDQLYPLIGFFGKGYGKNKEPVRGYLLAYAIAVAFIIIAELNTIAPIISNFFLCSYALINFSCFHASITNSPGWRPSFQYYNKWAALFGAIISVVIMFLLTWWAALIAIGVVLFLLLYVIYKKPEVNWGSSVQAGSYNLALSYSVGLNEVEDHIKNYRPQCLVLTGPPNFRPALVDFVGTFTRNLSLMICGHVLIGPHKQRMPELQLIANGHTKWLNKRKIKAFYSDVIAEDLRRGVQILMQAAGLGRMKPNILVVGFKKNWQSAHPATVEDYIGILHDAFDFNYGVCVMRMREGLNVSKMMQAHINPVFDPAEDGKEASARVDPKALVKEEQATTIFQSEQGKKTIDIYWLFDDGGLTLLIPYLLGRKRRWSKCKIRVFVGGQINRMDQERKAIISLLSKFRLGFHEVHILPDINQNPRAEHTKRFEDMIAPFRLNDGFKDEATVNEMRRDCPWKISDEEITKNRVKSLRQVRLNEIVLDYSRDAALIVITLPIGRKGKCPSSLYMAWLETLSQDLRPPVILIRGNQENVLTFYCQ
Details: HEK293
Description: Substrate uptake by the thiazide-sensitive electroneutral NaCl co-transporter (NCC, SLC12A3) as assessed by a Cl- sensitive FRET (Fluorescence Resonance Energy Transfer) sensor (SuperClomeleon) in HEK-293 JumpIN-SLC12A3 cells (PubChem AID: 1794834)

**Q.** Which proof of principle does the source give for `Cl` here?
**A.** Substrate. In Comparison To Wild-Type And Not-Induced Cells, Cells With Induced Slc12A3 Expression Showed A Specific Transporter Activity, Upon Substrate Addition, Detected As Significantly Higher Sensor Fluorescence Quenching.
